Tests used:
[1] = tested on: PC-3 prostate cancer cells; test: WST1 cell viability assay; assay type: cell-based, human; details: Homo sapiens, PC-3 cells, just before lysis; for inhibition at 10 µM: PC-3, 10 μM, read-out: % inh WST-1 (10 μM); for inhibition at 100 µM: PC-3, 100 μM, read-out: % inh WST-1 (100 μM)
Protocol: WST1 Cell Viability Assay: One hour prior to cell lysis for the dual luciferase assay, 10 μl per well of WST1 reagent (Roche) was added to the 96-well plates. Plates were incubated for 1 hour at 37° C. and 5% CO2. Cell viability was measured by WST1 absorbance at 450 nm with a Victor2 (Perkin-Elmer) plate reader.

Rho/MKL1 pathway = test: SRE.L-firefly luciferase reporter (dual luciferase assay), Gα12QL-transfected PC-3 cells; assay type: cell-based, human; details: Homo sapiens; for inhibition at 100 µM / inhibition at 10 µM: DMSO alone = 0%; for inhibition at 100 µM: read-out: % inh SRE.L (100 μM); for inhibition at 10 µM: read-out: % inh SRE.L (10 μM)
Protocol: Dual Luciferase Assay: Seed PC-3 prostate cancer cells (40,000 cells/well) were grown in 96-well plates in 10% FBS containing DMEM medium. Cells were transiently transfected with the Gα12QL activator of the Rho/MKL1 pathway, along with the SRE.L-firefly luciferase reporter construct for 6 hours. Additionally, cells were co-transfected with the TK-Renilla luciferase reporter as an indicator of non-specific compound effects. Various concentrations of selected compounds were added to the 96-well plates. Plates were incubated for 19 hours at 37° C. and 5% CO2 in 0.5% FBS containing DMEM medium. Cells were lysed with 1X Passive Lysis Buffer (Promega). Plates were incubated for 30 minutes at room temperature. Luminescence counts were read with a Victor2 (Perkin-Elmer) plate reader.

SMILES | inhibition at 10 µM [1] [%] | inhibition at 100 µM [1] [%] | IC50 (Rho/MKL1 pathway; 19 h) [µM] | IC50 (Rho/MKL1 pathway; 19 hrs) [µM] | inhibition at 100 µM (Rho/MKL1 pathway; 19 h) [%] | inhibition at 10 µM (Rho/MKL1 pathway; 19 h) [%]
O=C(Nc1ccc(Cl)cc1)C1CCCN(C(=O)c2cc(C(F)(F)F)cc(C(F)(F)F)c2)C1 (centres unmarked) [Compound 4, 1-(3,5-bis(trifluoromethyl)benzoyl)-N-(4-chlorophenyl)piperidine-3-carboxamide] | 0 | 14 |  |  |  | 
COc1ccc(NC(=O)CONC(=O)c2cc(C(F)(F)F)cc(C(F)(F)F)c2)cc1Cl [Compound 9, N-(2-(3-chloro-4-methoxyphenylamino)-2-oxoethoxy)-3,5-bis(trifluoromethyl)benzamide] |  |  | 11.4 |  |  | 
CN(C(=O)CONC(=O)c1cc(C(F)(F)F)cc(C(F)(F)F)c1)c1ccc(Cl)cc1 [Compound 11, N-(2-((4-chlorophenyl)(methyl)amino)-2-oxoethoxy)-3,5-bis(trifluoromethyl)benzamide] |  |  | 111 |  |  | 
COc1ccc(NC(=O)C2CCCN(C(=O)c3cc(C(F)(F)F)cc(C(F)(F)F)c3)C2)cc1Cl (centres unmarked) [Compound 12, 1-(3,5-bis(trifluoromethyl)benzoyl)-N-(3-chloro-4-methoxyphenyl)piperidine-3-carboxamide] |  |  | 6 |  |  | 
COc1ccc(NC(=O)CCNC(=O)c2cc(C(F)(F)F)cc(C(F)(F)F)c2)cc1Cl [Compound 13, N-(3-(3-chloro-4-methoxyphenylamino)-3-oxopropyl)-3,5-bis(trifluoromethyl)benzamide] |  |  | 142 |  |  | 
O=C(c1cc(C(F)(F)F)cc(C(F)(F)F)c1)N1CCC(Nc2ccc(Cl)cc2)CC1 [Compound 17, (3,5-bis(trifluoromethyl)phenyl)(4-(4-chlorophenylamino)piperidin-1-yl)methanone] |  |  |  | 10.8 |  | 
COc1ccc(NCCCNC(=O)c2cc(C(F)(F)F)cc(C(F)(F)F)c2)cc1Cl [Compound 20, N-(3-(3-chloro-4-methoxyphenylamino)propyl)-3,5-bis(trifluoromethyl)benzamide] |  |  | 9.9 |  |  | 
COc1cc(NCCCNC(=O)c2cc(C(F)(F)F)cc(C(F)(F)F)c2)ccc1Cl [Compound 21, N-(3-(4-chloro-3-methoxyphenylamino)propyl)-3,5-bis(trifluoromethyl)benzamide] |  |  | 7.3 |  |  | 
O=C(c1cc(C(F)(F)F)cc(C(F)(F)F)c1)N1CCC(=O)N(c2ccc(Cl)cc2)CC1 [Compound 24, 1-(3,5-bis(trifluoromethyl)benzoyl)-4-(4-chlorophenyl)-1,4-diazepan-5-one] |  |  | > 100 |  | 30 | 
O=C(CCNC(=O)c1cc(C(F)(F)F)cc(C(F)(F)F)c1)NCc1ccc(Cl)cc1 [Compound 25, N-(3-(4-chlorobenzylamino)-3-oxopropyl)-3,5-bis(trifluoromethyl)benzamide] |  |  | 5 |  |  | 
O=C(NC1CC(=O)N(c2ccc(Cl)cc2)C1)OCc1ccccc1 (centres unmarked) [Compound 31, Benzyl 1-(4-chlorophenyl)-5-oxopyrrolidin-3-ylcarbamate] |  |  | 54.7 |  |  | 
O=C(N[C@@H]1CCC[C@@H]1C(=O)Nc1ccc(Cl)cc1)c1cc(C(F)(F)F)cc(C(F)(F)F)c1 [Compound 39] |  |  | > 100 |  |  | 
O=C(CCc1cn(-c2cc(C(F)(F)F)cc(C(F)(F)F)c2)nn1)Nc1ccc(Cl)cc1 [Compound 40] |  |  | > 100 |  |  | 
O=C(NCCc1cn(-c2ccc(Cl)cc2)nn1)c1cc(C(F)(F)F)cc(C(F)(F)F)c1 [Compound 41] |  |  | > 100 |  |  | 
O=C(NCCCNc1ccc(Cl)nc1)c1cc(C(F)(F)F)cc(C(F)(F)F)c1 [Compound 42, N-(3-((6-chloropyridin-3-yl)amino)propyl)-3,5-bis(trifluoromethyl)benzamide] | -7.4 | 64.7 | 24.4 |  | 95.1 | -1.7
O=C(NCCCNc1ccc(Cl)cc1)c1cc(F)cc(F)c1 [Compound 43, N-(3-((4-chlorophenyl)amino)propyl)-3,5-difluorobenzamide] | -9.9 | 73 | 34.7 |  | 95.7 | -6.5
O=C(NCCCNc1ccc(Cl)cn1)c1cc(C(F)(F)F)cc(C(F)(F)F)c1 [Compound 44, N-(3-((5-chloropyridin-2-yl)amino)propyl)-3,5-bis(trifluoromethyl)benzamide] | 17.6 | 39.4 | 654 |  | 82.9 | 20.5
O=C(NC1CC(=O)N(c2ccc(Cl)cc2)C1)OCc1cc(C(F)(F)F)cc(C(F)(F)F)c1 (centres unmarked) [Compound 45, 3,5-bis(trifluoromethyl)benzyl (1-(4-chlorophenyl)-5-oxopyrrolidin-3-yl)carbamate] | 0.6 | 8.4 | 13.4 |  | 68 | 9.4
O=C(NC1CC(=O)N(c2ccc(Cl)cc2)C1)OCc1cc(F)cc(F)c1 (centres unmarked) [Compound 46, 3,5-difluorobenzyl (1-(4-chlorophenyl)-5-oxopyrrolidin-3-yl)carbamate] | 0.1 | 67.5 |  |  | 76.1 | 13.7
O=C(NC1CC(=O)N(c2ccc(Cl)cc2)C1)c1cc(C(F)(F)F)cc(C(F)(F)F)c1 (centres unmarked) [Compound 47, N-(1-(4-chlorophenyl)-5-oxopyrrolidin-3-yl)-3,5-bis(trifluoromethyl)benzamide] | -0.8 | 14.3 | 18 |  | 57.8 | 18
O=C1CC(NC(=O)c2cc(C(F)(F)F)cc(C(F)(F)F)c2)c2cc(Cl)ccc2N1 (centres unmarked) [Compound 48, N-(6-chloro-2-oxo-1,2,3,4-tetrahydroquinolin-4-yl)-3,5-bis(trifluoromethyl)benzamide] | 4.3 | -2.7 |  |  | 2.5 | 4.9
O=C(NC1CC(=O)N(c2ccc(Cl)cc2)C1)c1cc(F)cc(F)c1 (centres unmarked) [Compound 49, N-(1-(4-chlorophenyl)-5-oxopyrrolidin-3-yl)-3,5-difluorobenzamide] | -6.1 | 0.6 |  |  | 13.4 | -8.4
FC(F)(F)c1cc(CN2CCCC(CNc3ccc(Cl)cc3)C2)cc(C(F)(F)F)c1 (centres unmarked) [Compound 50, N-((1-(3,5-bis(trifluoromethyl)benzyl)piperidin-3-yl)methyl)-4-chloroaniline] | 20.9 | 32.2 |  |  | 70.2 | 0.9
O=C(Nc1cc(C(F)(F)F)cc(C(F)(F)F)c1)C1CC(=O)N(c2ccc(Cl)cc2)C1 (centres unmarked) [Compound 51, N-(3,5-bis(trifluoromethyl)phenyl)-1-(4-chlorophenyl)-5-oxopyrrolidine-3-carboxamide] | 55.9 | 74.6 |  |  | 99.2 | 74.3
COc1cc(N2CC(NC(=O)c3cc(C(F)(F)F)cc(C(F)(F)F)c3)CC2=O)ccc1Cl (centres unmarked) [Compound 52, N-(1-(4-chloro-3-methoxyphenyl)-5-oxopyrrolidin-3-yl)-3,5-bis(trifluoromethyl)benzamide] | -0.3 | 42.2 |  |  | 16.9 | -18.4

Reference: patent US20120252792A1, “METHODS AND COMPOSITIONS FOR MODULATING RHO-MEDIATED GENE TRANSCRIPTION” (THE REGENTS OF THE UNIVERSITY OF MICHIGAN, priority 2009, published 2012)
